{"source": "patent US7485661B2", "about": "“Heterobicyclic pyrazole derivatives as kinase inhibitors” (Pfizer Italia S.r.l., priority 2005, dated 2009)"}
{"smiles": "CCOC(=O)c1cc2[nH]nc(N)c2s1", "note": "[Compound 6, Ethyl 3-amino-1H-thieno[3,2-c]pyrazole-5-carboxylate]", "values": [{"measurement": "melting point", "value": "231 to 233", "unit": "°C"}]}
